Test results: patent EP0397424A2, “Multiple analysis system” (Biotrack, Inc., priority 1989, dated 1990)

System: red cells
Test: Red cell lysis by detergent-saturated polyethylene reagent pads (completeness of lysis, red cell fragments)
Format: cell-based
Parameters: key: + = complete lysis or absence of red cell fragments; - = incomplete lysis or presence of red cell fragments
Settings: blood passed through reagent pad saturated with detergent solution
Method: Centered polyethylene reagent pads were saturated with a detergent solution, and the ability of the pad to provide completely lysed blood not containing any red cell fragments was analyzed. Since this sample is also used in the blood donor cartridge as described above to provide sample that is used in an agglutination reaction, inhibition of the agglutination reaction was also measured. Inhibition of agglutination was done subjectively, with 0 indicating little or no inhibition of agglutination and 5 representing the maximum amount of inhibition (essentially no agglutination under normal agglutinating conditions).
Other combinations of detergents can be determined in the same manner by measuring both red cell lysis and inhibition of agglutination and selecting a combination of detergents that provides the desired complete lysis with a minimum of inhibition.

mellitin
Red Cell Fragments (+ = absence of fragments): - | Incomplete RBC lysis (+ = complete lysis): +
